Among the test systems are BT-549; DLD-1; DMS-114; DMS-273; HOP-18; KM-20L2; M19-MEL; XF498.
What all share (assay): DTP human tumour cell line panel, 48 h

“And” between values parts separate entries of the source, which are not always exact repeats. Identical values can stand only once.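 Growth conditions: 96-well plates. Treatment: test compound, 48 hours, 5 concentrations. Analysis: linear interpolation between bracketing concentrations; unreached endpoints set to highest concentration. GI50 is the concentration that inhibits growth by half.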 The source made the active and inactive calls. Cut-off read from the data, not from the text of the source: active = GI50 up to about 1.1 µM and inactive = higher.

As to `NCC1OC(n2cnc3c(=O)[nH]c(N)nc32)C(O)C1O` (stereo not given), in the experiment on BT-549, the GI50 was > 100 µM (inactive).
On the same count and under the same terms, as for `CC(O)c1cc2c(s1)C(=O)c1sccc1C2=O` (stereo not given), the figure is 0.0646 µM (active).
Same read-out and setting: as for `NC(=O)C1CCCNC1` (stereo not given), the figure is > 100 µM (inactive).
Same read-out and setting: as for `Cc1cc(C)nc(NC(=O)COc2ccc(Cl)cc2)c1`, the figure is > 100 µM (inactive); as for `N#Cc1c(N)n(C2OC(CO)C(O)C2O)c2ncnc(N)c12` (stereo not given), 0.152 µM (active).
As for `N#CC12CNCC1CN=N2` (stereo not given), the GI50 in the experiment on BT-549 is > 100 µM (inactive).
Regarding `O=C1c2c(c(-c3ccccc3)c(-c3ccccc3)c(-c3ccccc3)c2-c2ccccc2)C(=O)N1c1cccc(Br)c1`, the GI50 in the experiment on DLD-1, in the experiment on DMS-114, with DMS-273, in the experiment with HOP-18, in the experiment with KM-20L2 and with M19-MEL was > 100 µM (inactive) in each case. Further, in the experiment on XF498, the GI50 is > 100 µM (inactive).
Regarding `COc1ccc(OC)c(/N=C/c2cc(OC)c(OC)c(OC)c2)c1`, the GI50 with BT-549 is > 78.9 µM (inactive).
The same measure, in the same setting: the result for `COc1ccc(C[C@@H]2CN(C(=O)c3ccccc3)[C@H](Cc3ccc(O)cc3)CN2C(=O)c2ccccc2)cc1Br` reads > 100 µM (inactive).
On the same count and under the same terms, the result for `COC(=O)CC1C2(C)C3=C(C)C(c4ccoc4)CC3OC2C2OC(=O)C3(C)C=CC(=O)C1(C)C23` (stereo not given) reads 0.9 µM (active); that for `COc1ccc(C/C=C(\C)CCO)cc1`, > 100 µM (inactive); that for `NS(=O)(=O)c1ccc(Nc2c3ccccc3nc3c(C(=O)NCCCN(CCO)CCO)cccc23)cc1`, 20.4 µM (inactive).
Still for that read-out and setting: as for `COC(=O)CNC(=O)/C=C/[C@H](O[Si](C)(C)C(C)(C)C)[C@H](/C=C/C(=O)NCC(=O)OC)O[Si](C)(C)C(C)(C)C`, the figure is > 25 µM (inactive); as for `COc1cc(C(c2cccc3ccccc23)N2C(=O)CCC2C(=O)O)cc(OC)c1OC` (stereo not given), > 100 µM (inactive).
For the compound `O=C(NC(=O)c1cn(CCNCCO)c(=O)[nH]c1=O)OCc1ccccc1`, the GI50 was > 100 µM (inactive) in the experiment with DLD-1, > 100 µM (inactive) in the experiment on DMS-114, < 0.01 µM (active) with HOP-18 and > 100 µM (inactive) with M19-MEL.
Turning to `CC(=O)Nc1ccc(-c2nnc(SCC(=O)Nc3ccc(Cl)cc3)o2)cc1`, the GI50 in the experiment with DLD-1 is 10.4 µM (inactive); with DMS-114, 1.85 µM (inactive); with DMS-273, 14.5 µM (inactive); in the experiment on HOP-18, 15 µM (inactive); in the experiment with KM-20L2, 16.4 µM (inactive); in the experiment with M19-MEL it was 11.7 µM (inactive).
With `COc1ccc(C2S/C(=C\c3ccc(OC)cc3OC)C(=O)N2NC(=O)Cc2ccccc2)cc1` (stereo not given), the GI50 in the experiment with DLD-1, in the experiment on DMS-114, with DMS-273, with HOP-18 and in the experiment with M19-MEL was > 100 µM (inactive) each time.
`O=C(C/N=C(\CN(c1ccccc1)c1ccccc1)Oc1c(Cl)cc(Cl)cc1Cl)N1c2ccccc2Sc2ccccc21`: the GI50 in the experiment with BT-549 was 17.3 µM (inactive).
The same measure, in the same setting: the result for `Cc1cc(C)nc(NS(=O)(=O)c2ccc(Nc3nncc(=O)n3N)cc2)n1` reads 18.4 µM (inactive).
`COc1c2c(c(OC)c3c(=O)cc(C/C(=N/NC(=O)C[n+]4ccccc4)C(=O)Nc4cc(C)ccc4C)oc13)OCO2`: the GI50 in the experiment on DLD-1, in the experiment with DMS-114, in the experiment with DMS-273, in the experiment on KM-20L2 and in the experiment with M19-MEL was > 100 µM (inactive) throughout.
Take `CN(C)/N=C(/c1nc2ccc([N+](=O)[O-])cc2nc1O)C(O)c1ccco1` (stereo not given): the GI50 in the experiment with DLD-1 was 84.1 µM (inactive); in the experiment with DMS-114 it was 16.4 µM (inactive); in the experiment with DMS-273, 91 µM (inactive); in the experiment with KM-20L2, 21 µM (inactive); in the experiment on M19-MEL it was > 100 µM (inactive); in the experiment with XF498, > 100 µM (inactive).
Regarding `O=c1[nH]c2ccc(C(F)(F)F)cc2nc1C(F)(F)F`, the GI50 in the experiment on BT-549 is 22.2 µM (inactive).
On to `CSc1c(CC(=O)O)n(Cc2ccccc2)c2ccccc12`, for which the GI50 with BT-549 is > 100 µM (inactive).
The same measure, in the same setting: the result for `C[n+]1c2ccccc2c(N=[N+]=[N-])c2ccccc21` reads > 10 µM (inactive); that for `CCOC(=O)Cn1nnc2cc(Nc3nc4ccccc4nc3C(=O)OCC)ccc21`, > 100 µM (inactive); that for `C=C(CO)[C@H]1Oc2ccc(C(C)=O)cc2[C@@H]1O`, 33.2 µM (inactive).
Regarding `COc1cc(OC)c2c(c1)C(=O)C(CC(C)O)=CC2=O` (stereo not given), the GI50 is 13.7 µM (inactive) in the experiment with DLD-1; 3.08 µM (inactive) in the experiment on DMS-114; 16.6 µM (inactive) with DMS-273; 16.7 µM (inactive) in the experiment with HOP-18; 17.2 µM (inactive) in the experiment on KM-20L2; 3.42 µM (inactive) with M19-MEL. The GI50 with XF498 was 14 µM (inactive).
Consider `COc1ccc2c(c1)N=C1CSC(c3cccc(Br)c3)N1C2` (stereo not given), for which the GI50 with BT-549 is 12.4 µM (inactive).
In the case of `CC(=O)OC(/C=C/c1ccccc1)P1(=O)N(CC(C)(C)C)[C@@H]2CCCC[C@H]2N1CC(C)(C)C` (stereo not given in full), in the experiment with BT-549, the GI50 is 11.5 µM (inactive) and 14.4 µM (inactive).
For `Cc1nc2c(n1CCN(C)C)C(=O)c1ccccc1C2=O`, the GI50 in the experiment on DLD-1 was 13.5 µM (inactive); in the experiment on DMS-273, 13.5 µM (inactive); in the experiment on KM-20L2 it was 6.31 µM (inactive); in the experiment on M19-MEL, 2.02 µM (inactive); with XF498 it was 18.3 µM (inactive).
Turning to `COc1ccc(CCCCl)c(C2=NCCc3ccccc32)c1`, the GI50 in the experiment on BT-549 is 33.3 µM (inactive).
Same read-out and setting: the result for `C(=N\C12CC3CC(CC(C3)C1)C2)/C1CCCCC1` reads > 100 µM (inactive); that for `C=CCOC(=O)C[C@H](NC(=O)[C@H](Cc1ccc(O)cc1)NCC(F)(F)F)C(=O)OCC=C`, > 100 µM (inactive).
The same measure, in the same setting: the result for `O=C1CSC2(CC(/C=C/c3ccccc3O)=NN2c2cccc(S(=O)(=O)O)c2)N1c1nc2ccccc2s1` (stereo not given) reads 24.9 µM (inactive); that for `CC1=CC(=O)/C(=C/NC(N)=S)C(=O)O1`, > 100 µM (inactive); that for `O=C1CC[C@@]2(O)[C@H]3Cc4ccc(-c5ccccc5)c5c4[C@@]2(CCN3CC2CC2)[C@H]1O5`, 14.3 µM (inactive).
The same measure, in the same setting: as for `O=C1/C(=C/c2cccc([N+](=O)[O-])c2)Sc2scc(-c3ccc([N+](=O)[O-])cc3)[n+]21`, the figure is 11.6 µM (inactive).
Turning to `CC1CN(c2ccc(Cl)cc2)CC(C)OC(=O)O1` (stereo not given), the GI50 with DLD-1, with DMS-114, in the experiment with DMS-273, with KM-20L2, in the experiment on M19-MEL and with XF498 was > 100 µM (inactive) throughout.
Consider `O=C1c2nn(-c3ccccc3)nc2C(c2ccccc2)N1c1ccccc1` (stereo not given), for which the GI50 with DLD-1, in the experiment on DMS-114, in the experiment on DMS-273, with HOP-18, in the experiment on KM-20L2 and in the experiment with M19-MEL was > 100 µM (inactive) throughout. Also, in the experiment on XF498, the GI50 is > 100 µM (inactive).
With `O=C1/C(=C/c2ccc(O)cc2)CCC1CNc1ccccc1` (stereo not given), the GI50 in the experiment on BT-549 is 14.5 µM (inactive).
Same read-out and setting: the result for `CC(=O)OC1C[C@@H](C)C2(C[C@H](O)c3ccoc3)C(=O)OC[C@]13C2CCC(O)C31CO1` (stereo not given in full) reads > 100 µM (inactive); that for `CC(C)(C)NC(=O)C12C3C4C1C1C2C3C41C(=O)NC(C)(C)C` (stereo not given), > 100 µM (inactive).
In the case of `CC1CCC(C(C)(C)c2ccccc2)C(=O)C1` (stereo not given), the GI50 with DLD-1 was > 100 µM (inactive); in the experiment with DMS-114 it was 75.7 µM (inactive); in the experiment with DMS-273, > 100 µM (inactive); in the experiment with HOP-18, 24.8 µM (inactive); with KM-20L2 it was > 100 µM (inactive); in the experiment on M19-MEL it was > 100 µM (inactive). Besides, the GI50 in the experiment with XF498 was > 100 µM (inactive).
As to `COC(=O)C1=C(O)C(C(=O)OC)[C@]2(O)[C@H](C(=O)OC)[C@H]1C[C@@H](c1ccc(O)cc1)[C@H]2C(=O)OC` (stereo not given in full), in the experiment with BT-549, the GI50 was 26.2 µM (inactive).
On to `Cc1[nH]c2ccccc2c1C1CC(=O)NC1=O` (stereo not given), for which the GI50 in the experiment on DLD-1, in the experiment on DMS-114, in the experiment with DMS-273, in the experiment with KM-20L2 and with M19-MEL was > 100 µM (inactive) in each case.
With `CC(C)(C)[Si](C)(C)OCC1OC(n2ccc(=O)[nH]c2=O)C(O[Si](C)(C)C(C)(C)C)[C@@]12O[C@H]2C(N)=O` (stereo not given in full), the GI50 in the experiment on BT-549 was 18.5 µM (inactive).
Same read-out and setting: as for `O=C(O)Cc1ccc(Nc2nc3cc(C(F)(F)F)ccc3nc2C(=O)O)cc1`, the figure is > 100 µM (inactive).
On to `C/C(=C\c1ccccc1)C(O)S(=O)(=O)O` (stereo not given), for which the GI50 in the experiment on DLD-1, in the experiment with DMS-114, with DMS-273, in the experiment on HOP-18, with KM-20L2 and in the experiment with M19-MEL was > 100 µM (inactive) in each case.
Turning to `CCOc1ccc(NCc2cc(OC)c(OC)c(OC)c2)cc1`, the 50% growth inhibitory concentration (GI50) with BT-549 is 0.125 µM (active); in the experiment on DLD-1, 1.11 µM (active); in the experiment on DMS-114 it was 0.287 µM (active); with KM-20L2 it was 0.475 µM (active).
Regarding `CC1=C(N2CC2)C(=O)c2nc3n(c2C1=O)CCC3OC(=O)CCl` (stereo not given), the GI50 with BT-549 is 0.0152 µM (active); in the experiment with DLD-1, 0.101 µM (active); in the experiment on DMS-114, 0.171 µM (active); in the experiment on DMS-273, 0.049 µM (active); in the experiment on HOP-18 it was 0.043 µM (active); in the experiment with KM-20L2, 0.131 µM (active). Besides, the GI50 in the experiment with M19-MEL was 0.0817 µM (active); with XF498, 0.0301 µM (active).
In the case of `COc1ccc2c(c1O)-c1c(OC)c(OC)cc3c1[C@H](C2)[N+](C)(C)CC3`, the GI50 in the experiment on BT-549 was > 100 µM (inactive).
On the same count and under the same terms, as for `Nc1nc(O)c(Br)c(-c2cccc([N+](=O)[O-])c2)n1`, the figure is 38.6 µM (inactive); as for `CCSc1nc(-c2cccs2)nc2ccc(I)cc12`, > 100 µM (inactive).
The same measure, in the same setting: the result for `CC(=O)c1csc2c1C(=O)c1ccccc1C2=O` reads 1.62 µM (inactive).
With `CO[C@H]1Nc2c(ccc(C)c2O)C(=O)N2C=C(/C=C/C(N)=O)C[C@@H]12` [ANTHRAMYCIN METHYL ETHER], the GI50 is 0.0143 µM (active) in the experiment with BT-549; 0.118 µM (active) in the experiment on DLD-1; 0.0213 µM (active) in the experiment with DMS-114; 0.0295 µM (active) with DMS-273; 0.444 µM (active) in the experiment on HOP-18; 0.184 µM (active) with KM-20L2. For the same compound, the GI50 with M19-MEL is 0.0269 µM (active); in the experiment on XF498, < 0.01 µM (active).

Usually GI50 stands for the concentration at which growth is held to half of that of the control.
